Columns and labels:
Assay type in all cases: in vivo
[1] = test system: Echinochloa crus-galli var. crus-galli; experiment: Test Example 4: herbicidal effect by application to foliage (diluvial soil, plastic box); settings: Application herbicide amount 320 g/ha; foliage application
In short: (§1)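 Read-out is a 0–5 visual grade of herbicidal ratio (5: ≥90%, almost withered; 0: ≤5%) taken three weeks after treatment. Compound was applied as a diluted emulsion to stem and leaf parts of 14-day greenhouse-grown plants (25° C. to 30° C.) at rates expressed as g/ha.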

Avena fatua = experiment: as above; settings: Application herbicide amount 320 g/ha; foliage application
In short: as §1

Apera spica-venti. = experiment: as above; settings: Application herbicide amount 320 g/ha; foliage application
In short: as §1

Galium spurium = experiment: as above; settings: Application herbicide amount 320 g/ha; foliage application
In short: as §1

Lolium multiflorum Lam. = experiment: as above; settings: Application herbicide amount 320 g/ha; foliage application
In short: as §1

Digitaria ciliaris = experiment: as above; settings: Application herbicide amount 320 g/ha; foliage application
In short: as §1

Amaranthus retroflexus = experiment: as above; settings: Application herbicide amount 320 g/ha; foliage application
In short: as §1

Stellaria media = experiment: as above; settings: Application herbicide amount 320 g/ha; foliage application
In short: as §1

Chenopodium album = experiment: as above; settings: Application herbicide amount 320 g/ha; foliage application
In short: as §1

Setaria viridis = experiment: as above; settings: Application herbicide amount 320 g/ha; foliage application
In short: as §1

Alopecurus myosuroides = experiment: as above; settings: Application herbicide amount 320 g/ha; foliage application
In short: as §1

Abutilon theophrasti = experiment: as above; settings: Application herbicide amount 320 g/ha; foliage application
In short: as §1

[2] = test system: directly sowed Oryza sativa; experiment: Test Example 3: effect on crop by application to foliage (Wagner pot, water depth 0.1-0.5 cm); settings: Nineteenth Table; application to foliage; application herbicide amount 320 g/ha
In short: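 Plants are raised 14 days from seed in flooded-surface Wagner pots at 25–30 °C, sprayed on stems and leaves with diluted emulsion at a predetermined rate, and rated three weeks on using a 0–5 herbicidal-ratio scale (5 ≥90%).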

Veronica persica = experiment: Test Example 4: herbicidal effect by application to foliage (diluvial soil, plastic box); settings: Application herbicide amount 320 g/ha; foliage application
In short: as §1

| Structure (SMILES) | H (Echinochloa crus-galli var. crus-galli) herbicidal effect grade [1] | I (Avena fatua) herbicidal effect grade (Avena fatua) | L (Apera spica-venti.) herbicidal effect grade (Apera spica-venti.) | Q (Galium spurium) herbicidal effect grade (Galium spurium) | K (Lolium multiflorum Lam.) herbicidal effect grade (Lolium multiflorum Lam.) | F (Digitaria ciliaris) herbicidal effect grade (Digitaria ciliaris) | N (Amaranthus retroflexus) herbicidal effect grade (Amaranthus retroflexus) | P (Stellaria media) herbicidal effect grade (Stellaria media) | O (Chenopodium album) herbicidal effect grade (Chenopodium album) | G (Setaria viridis) herbicidal effect grade (Setaria viridis) | J (Alopecurus myosuroides) herbicidal effect grade (Alopecurus myosuroides) | M (Abutilon theophrasti) herbicidal effect grade (Abutilon theophrasti) | b (effect on crop grade) [2] | R (Veronica persica) herbicidal effect grade (Veronica persica) |
| --- | --- | --- | --- | --- | --- | --- | --- | --- | --- | --- | --- | --- | --- | --- |
| COCCN(C)c1nnc2c(C(=O)Nc3nnc(C)o3)ccc(C(F)(F)F)n12 [1-129] | 5 (Herbicidal ratio of 90% or more (almost completely withered)) | 2 (Herbicidal ratio of 20% or more and less than 40%) | 1 (Herbicidal ratio of 5% or more and less than 20%) | 0 (Herbicidal ratio of 5% or less (almost no effect)) | 1 (Herbicidal ratio of 5% or more and less than 20%) | 4 (Herbicidal ratio of 70% or more and less than 90%) | 4 (Herbicidal ratio of 70% or more and less than 90%) | 5 (Herbicidal ratio of 90% or more (almost completely withered)) | 5 (Herbicidal ratio of 90% or more (almost completely withered)) | 4 (Herbicidal ratio of 70% or more and less than 90%) | 1 (Herbicidal ratio of 5% or more and less than 20%) | 3 (Herbicidal ratio of 40% or more and less than 70%) | 3 (Herbicidal ratio of 40% or more and less than 70%) |  |
| O=C(Nc1nnco1)c1ccc(C(F)(F)F)n2c(-c3ccc(Cl)nc3)nnc12 [1-150] | 5 (Herbicidal ratio of 90% or more (almost completely withered)) | 3 (Herbicidal ratio of 40% or more and less than 70%) | 3 (Herbicidal ratio of 40% or more and less than 70%) | 4 (Herbicidal ratio of 70% or more and less than 90%) | 3 (Herbicidal ratio of 40% or more and less than 70%) | 4 (Herbicidal ratio of 70% or more and less than 90%) | 5 (Herbicidal ratio of 90% or more (almost completely withered)) | 5 (Herbicidal ratio of 90% or more (almost completely withered)) | 5 (Herbicidal ratio of 90% or more (almost completely withered)) | 3 (Herbicidal ratio of 40% or more and less than 70%) | 1 (Herbicidal ratio of 5% or more and less than 20%) | 3 (Herbicidal ratio of 40% or more and less than 70%) |  | 5 (Herbicidal ratio of 90% or more (almost completely withered)) |
| COc1cc(OC)cc(-c2nnc3c(C(=O)Nc4nnco4)ccc(C(F)(F)F)n23)c1 [1-148] | 5 (Herbicidal ratio of 90% or more (almost completely withered)) | 1 (Herbicidal ratio of 5% or more and less than 20%) | 2 (Herbicidal ratio of 20% or more and less than 40%) | 4 (Herbicidal ratio of 70% or more and less than 90%) | 3 (Herbicidal ratio of 40% or more and less than 70%) | 4 (Herbicidal ratio of 70% or more and less than 90%) | 5 (Herbicidal ratio of 90% or more (almost completely withered)) | 5 (Herbicidal ratio of 90% or more (almost completely withered)) | 5 (Herbicidal ratio of 90% or more (almost completely withered)) | 3 (Herbicidal ratio of 40% or more and less than 70%) | 1 (Herbicidal ratio of 5% or more and less than 20%) | 3 (Herbicidal ratio of 40% or more and less than 70%) |  | 5 (Herbicidal ratio of 90% or more (almost completely withered)) |
| O=C(Nc1nnco1)c1ccc(C(F)(F)F)n2c(-c3ccc(F)cc3)nnc12 [1-147] | 4 (Herbicidal ratio of 70% or more and less than 90%) | 3 (Herbicidal ratio of 40% or more and less than 70%) | 3 (Herbicidal ratio of 40% or more and less than 70%) | 3 (Herbicidal ratio of 40% or more and less than 70%) | 3 (Herbicidal ratio of 40% or more and less than 70%) | 4 (Herbicidal ratio of 70% or more and less than 90%) | 4 (Herbicidal ratio of 70% or more and less than 90%) | 5 (Herbicidal ratio of 90% or more (almost completely withered)) | 5 (Herbicidal ratio of 90% or more (almost completely withered)) | 3 (Herbicidal ratio of 40% or more and less than 70%) | 2 (Herbicidal ratio of 20% or more and less than 40%) | 3 (Herbicidal ratio of 40% or more and less than 70%) |  | 5 (Herbicidal ratio of 90% or more (almost completely withered)) |
| O=C(Nc1nnco1)c1ccc(C(F)(F)F)n2c(C3CC3)nnc12 [1-144] | 5 (Herbicidal ratio of 90% or more (almost completely withered)) | 2 (Herbicidal ratio of 20% or more and less than 40%) | 0 (Herbicidal ratio of 5% or less (almost no effect)) | 3 (Herbicidal ratio of 40% or more and less than 70%) | 1 (Herbicidal ratio of 5% or more and less than 20%) | 3 (Herbicidal ratio of 40% or more and less than 70%) | 4 (Herbicidal ratio of 70% or more and less than 90%) | 5 (Herbicidal ratio of 90% or more (almost completely withered)) | 5 (Herbicidal ratio of 90% or more (almost completely withered)) | 2 (Herbicidal ratio of 20% or more and less than 40%) | 1 (Herbicidal ratio of 5% or more and less than 20%) | 2 (Herbicidal ratio of 20% or more and less than 40%) |  | 4 (Herbicidal ratio of 70% or more and less than 90%) |
| Cc1nnc(NC(=O)c2ccc(C(F)(F)F)n3c(N(C)CCC#N)nnc23)o1 [1-153] | 5 (Herbicidal ratio of 90% or more (almost completely withered)) | 3 (Herbicidal ratio of 40% or more and less than 70%) | 2 (Herbicidal ratio of 20% or more and less than 40%) | 4 (Herbicidal ratio of 70% or more and less than 90%) | 1 (Herbicidal ratio of 5% or more and less than 20%) | 4 (Herbicidal ratio of 70% or more and less than 90%) | 4 (Herbicidal ratio of 70% or more and less than 90%) | 5 (Herbicidal ratio of 90% or more (almost completely withered)) | 5 (Herbicidal ratio of 90% or more (almost completely withered)) | 4 (Herbicidal ratio of 70% or more and less than 90%) | 1 (Herbicidal ratio of 5% or more and less than 20%) | 3 (Herbicidal ratio of 40% or more and less than 70%) |  | 4 (Herbicidal ratio of 70% or more and less than 90%) |
